Reference: PubChem BioAssay AID602486 (The Scripps Research Institute Molecular Screening Center, 2012)
Active and inactive are the calls of the source. How the calls were made is not given here.

Target: 3C-like protease (3CLpro), SARS coronavirus (filed as Infectious bronchitis virus)
Test: PubChem AID 602486
Conditions: recombinant 3CLpro, fluorogenic peptide cleavage

SMILES: CC(=O)Nc1ccc(N(C(=O)Cn2cc(-c3ccccc3)nn2)C(C(=O)NC(C)(C)C)c2ccsc2)cc1 (stereo unspecified)
- IC50: inactive
